Results taken from patent US12378250B2, “Tricyclic compound as IRAK4 inhibitor” (KOREA RESEARCH INSTITUTE OF CHEMICAL TECHNOLOGY, priority 2018, dated 2025).

Tests used:
[1] = tested on: TNF-α secretion, peripheral blood mononuclear cells (PBMCs); experiment: Suppression of TNF-α secretion in LPS-treated PBMCs (ELISA); format: cell-based; details: PBMC, 100 ng/ml LPS, 24 hours, read-out: TNF-α, % inhibition degree
Method: (§1) Peripheral blood mononuclear cells (PBMCs) isolated from whole blood were distributed in a 96-well plate. TNF-α was aliquoted at a density of 1×10^5 cells/well, IFN-α was aliquoted at a density of 2×10^5 cells/well, and TNF-α and IFN-α were treated with a compound diluted to 4-fold of a final concentration and totally cultured for 30 minutes. TNF-α was treated with 100 ng/ml lipopolysaccharide (LPS), IFN-α was treated with 500 nM ODN2216 (CpGTLR9 stimulator), and TNF-α and IFN-α were further cultured for 24 hours and 72 hours, respectively. An enzyme-linked immunosorbent assay (ELISA) was performed on TNF-α and IFN-α using an ELISA kit manufactured by BD Biosciences and an ELISA kit manufactured by PBL Assay Science, Inc., respectively. A cell supernatant and a standard drug were put into the ELISA plates and reacted for 2 hours. The plates were washed and a measurement antibody and streptavidin-HRP were sequentially added thereto. After the plates were washed, a TMB substrate was added thereto and reacted in a dark place. The reaction was stopped by adding a stop solution thereto, and the absorbance at 450 nm and 570 nm was measured using an absorber (OPTIMax tunable microplate reader, molecular devices). The experimental results are shown in [Table 2].

[2] = tested on: NF-κB promoter, THP1-Lucia™ NF-κB cell line; experiment: NF-κB promoter inhibition, THP1-Lucia NF-κB cell line; format: cell-based; details: 100 ng/ml LPS, 24 hours, read-out: NF-κB, % inhibition degree
Method: (§2) A THP1-Lucia™ NF-κB cell line (Invivogen) was used in an NF-κB inhibition experiment, and a THP1-Lucia™ ISG cell line was used in an ISG inhibition experiment. In the NF-κB inhibition experiment, cells were planted at a density of 1×10^4 cells/well in a 96-well plate, and in the ISG inhibition experiment, cells were planted at a density of 2×10^4 cells/well in a 96-well plate. The cells were treated with a compound diluted to 4-fold of a final concentration, and totally cultured for 30 minutes. NF-κB was treated with 100 ng/ml lipopolysaccharide (LPS), ISG was treated with a stimulator of 1 μg/ml Poly(dA:dT)/LyoVec, and NF-κB and ISG were cultured for 24 hours. 10 μl of a cell supernatant was taken and transferred to a 96-well plate. 50 μl of a Quanti-luc solution was aliquoted using an automatic aliquoter of a measurer (Envision Multilabel Plate Reader, Perkin Elmer, Inc.), and light emission signals were measured.

[3] = tested on: ISG promoter, THP1-Lucia™ ISG cell line; experiment: ISG promoter inhibition, THP1-Lucia ISG cell line; format: cell-based; details: 1 μg/ml Poly(dA:dT)/LyoVec, 24 hours, read-out: ISG, % inhibition degree
Method: as §2

[4] = tested on: IFN-α secretion, peripheral blood mononuclear cells (PBMCs); experiment: Suppression of IFN-α secretion in ODN2216-treated PBMCs (ELISA); format: cell-based; details: PBMC, 500 nM ODN2216, 72 hours, read-out: IFN-α, % inhibition degree
Method: as §1

IRAK4 enzyme = target: T1, IRAK4 enzyme (Homo sapiens, UniProt Q9NWZ3); experiment: IRAK4 enzyme inhibition degree (bead-based kinase assay, peptide substrate BMKC-2, 100 μM ATP); format: biochemical; details: for inhibition at 1 µM: compound 1 μM
T1 sequence (Q9NWZ3 1-460): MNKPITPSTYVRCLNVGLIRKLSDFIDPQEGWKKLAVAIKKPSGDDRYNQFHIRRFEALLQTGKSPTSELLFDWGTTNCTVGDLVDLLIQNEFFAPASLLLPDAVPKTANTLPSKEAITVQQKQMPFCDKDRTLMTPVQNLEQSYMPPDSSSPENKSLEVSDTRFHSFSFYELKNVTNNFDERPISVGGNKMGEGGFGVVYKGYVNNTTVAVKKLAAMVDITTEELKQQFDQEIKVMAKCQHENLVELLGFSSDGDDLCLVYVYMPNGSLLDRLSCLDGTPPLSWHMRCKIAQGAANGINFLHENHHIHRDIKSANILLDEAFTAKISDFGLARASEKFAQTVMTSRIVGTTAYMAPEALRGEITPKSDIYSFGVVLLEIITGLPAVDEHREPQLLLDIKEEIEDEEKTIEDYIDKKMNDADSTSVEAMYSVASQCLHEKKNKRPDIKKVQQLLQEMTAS
Method: 2.5 μl of a compound diluted to 4-fold of a final concentration was put into a 384-well white plate (low volume). 2.5 μl of 0.4 ng/μl IRAK4 enzyme was added thereto, and the resulting mixture was totally reacted for 10 minutes. 5 μl of a mixed liquid of a 6 μM peptide substrate (BMKC-2) and 100 μM ATP was added thereto, the resulting mixture was reacted at room temperature for 60 minutes, then 2.5 μl of 10 mM EDTA was added thereto, and the resulting mixture was reacted again for 10 minutes. 40 nM anti-phospho Thr antibody was aliquoted to 2.5 μl each, 5 μl of a mixed solution of a 160 μl/ml acceptor bead and a donor bead was added thereto, and then the resulting mixture was reacted at room temperature for 60 minutes. Fluorescence signals were measured using a bead experimental apparatus (Fusion alpha-FP Microplate Reader, Perkin Elmer Inc.).
From the detected signal, an activity inhibition rate [% inhibition degree=(the average value of a compound−the average value of a negative control)/(the average value of a positive control−the average value of a negative control)×100] was calculated, and is shown in [Table 1]. Further, a % inhibition degree of the compound at each concentration was obtained, and then a 50% inhibition concentration (IC50 value) was analyzed by a non-linear regression analysis.

Q: For `COc1cncc(-c2ccc3[nH]c4nccc(N[C@H]5CC[C@H](N6CCN(S(C)(=O)=O)CC6)CC5)c4c3c2)c1` [Compound 17c], which inhibition at 0.1 µM [1] is on record?
A: Its inhibition at 0.1 µM is 7%.

Q: And the inhibition at 1 µM [1]?
A: Its inhibition at 1 µM is 88%.

Q: What about the inhibition at 0.1 µM [2] of the same compound?
A: The inhibition at 0.1 µM was 2%.

Q: And the inhibition at 1 µM [2]?
A: The inhibition at 1 µM was 53%.

Q: And the inhibition at 0.1 µM [3]?
A: Its inhibition at 0.1 µM is 2%.

Q: And the inhibition at 1 µM [3]?
A: The inhibition at 1 µM was 52%.

Q: And the inhibition at 0.1 µM [4]?
A: The inhibition at 0.1 µM was 23%.

Q: What about the inhibition at 1 µM [4] of the same compound?
A: Its inhibition at 1 µM is 99%.

Q: What about the IC50 (IRAK4 enzyme) of the same compound?
A: Its IC50 is 32.6 nM.

Q: And the inhibition at 1 µM (IRAK4 enzyme)?
A: Its inhibition at 1 µM is 100%.

Q: With `CCOC(=O)c1ccc2[nH]c3ncnc(N[C@H]4CC[C@H](N5CCOCC5)CC4)c3c2c1` [Compound 5ba, ethyl 4-((trans-4-morpholinocyclohexyl)amino)-9H-pyrimido[4,5-b]indole-6-carboxylate] as the compound, how does the inhibition at 0.1 µM [1] read?
A: The inhibition at 0.1 µM was 31.7%.

Q: What about the inhibition at 1 µM [1] of the same compound?
A: Its inhibition at 1 µM is 41.3%.

Q: What about the inhibition at 0.1 µM [2] of the same compound?
A: Its inhibition at 0.1 µM is 48%.

Q: And the inhibition at 1 µM [2]?
A: Its inhibition at 1 µM is 89%.

Q: What about the inhibition at 0.1 µM [3] of the same compound?
A: Its inhibition at 0.1 µM is 37%.

Q: What about the inhibition at 1 µM [3] of the same compound?
A: The inhibition at 1 µM was 78%.

Q: And the inhibition at 0.1 µM [4]?
A: The inhibition at 0.1 µM was 27%.

Q: What about the inhibition at 1 µM [4] of the same compound?
A: Its inhibition at 1 µM is 73.9%.

Q: And the IC50 (IRAK4 enzyme)?
A: Its IC50 is 29 nM.

Q: And the inhibition at 1 µM (IRAK4 enzyme)?
A: Its inhibition at 1 µM is 83%.

Q: Which inhibition at 0.1 µM [1] does the source give for `Cn1cc(-c2ccc3[nH]c4nccc(N[C@H]5CC[C@H](N6CCOCC6)CC5)c4c3c2)cn1` [Compound 17a] here?
A: The inhibition at 0.1 µM was 22%.

Q: What about the inhibition at 1 µM [1] of the same compound?
A: Its inhibition at 1 µM is 75%.

Q: And the inhibition at 0.1 µM [2]?
A: Its inhibition at 0.1 µM is 31%.

Q: And the inhibition at 1 µM [2]?
A: The inhibition at 1 µM was 78%.

Q: What about the inhibition at 0.1 µM [3] of the same compound?
A: The inhibition at 0.1 µM was 14%.

Q: And the inhibition at 1 µM [3]?
A: Its inhibition at 1 µM is 93%.

Q: What about the inhibition at 0.1 µM [4] of the same compound?
A: The inhibition at 0.1 µM was 67%.

Q: And the inhibition at 1 µM [4]?
A: The inhibition at 1 µM was 103%.

Q: And the inhibition at 1 µM (IRAK4 enzyme)?
A: Its inhibition at 1 µM is 100%.

Q: What does the source list for `CN(C)CCOc1cncc(-c2ccc3[nH]c4ncnc(N[C@H]5CC[C@H](N6CCOCC6)CC5)c4c3c2)c1` [Compound 6aag, 6-(5-(2-(dimethylamino)ethoxy)pyridin-3-yl)-N-(trans-4-morpholinocyclohexyl)-9H-pyrimido[4,5-b]indole-4-amine]?
A: inhibition at 0.1 µM [1]: 16.7%; inhibition at 1 µM [1]: 51.4%; inhibition at 0.1 µM [2]: 12%; inhibition at 1 µM [2]: 37%; inhibition at 0.1 µM [3]: 20%; inhibition at 1 µM [3]: 52%; inhibition at 0.1 µM [4]: 6.4%; inhibition at 1 µM [4]: 89.5%; IC50 (IRAK4 enzyme): 31 nM; inhibition at 1 µM (IRAK4 enzyme): 82%

Q: With `CN(C)[C@H]1CC[C@H](Nc2ncnc3[nH]c4ccc(-c5cncc(F)c5)cc4c23)CC1` [Compound 6aba, trans-N1-(6-(5-fluoropyridin-3-yl)-9H-pyrimido[4,5-b]indol-4-yl)-N4,N4-dimethylcyclohexane-1,4-diamine] as the compound, how does the inhibition at 0.1 µM [1] read?
A: Its inhibition at 0.1 µM is 39.1%.

Q: And the inhibition at 1 µM [1]?
A: The inhibition at 1 µM was 73.3%.

Q: What about the inhibition at 0.1 µM [2] of the same compound?
A: Its inhibition at 0.1 µM is 40%.

Q: What about the inhibition at 1 µM [2] of the same compound?
A: Its inhibition at 1 µM is 87%.

Q: What about the inhibition at 0.1 µM [3] of the same compound?
A: Its inhibition at 0.1 µM is 33%.

Q: And the inhibition at 1 µM [3]?
A: The inhibition at 1 µM was 83%.

Q: What about the inhibition at 0.1 µM [4] of the same compound?
A: The inhibition at 0.1 µM was 3.4%.

Q: And the inhibition at 1 µM [4]?
A: Its inhibition at 1 µM is 81.3%.

Q: And the IC50 (IRAK4 enzyme)?
A: The IC50 was 4 nM.

Q: And the inhibition at 1 µM (IRAK4 enzyme)?
A: Its inhibition at 1 µM is 83%.

Q: How did the inhibition at 0.1 µM [1] turn out when `Oc1cncc(-c2ccc3[nH]c4ncnc(N[C@H]5CC[C@H](N6CCOCC6)CC5)c4c3c2)c1` [Compound 6aae, 5-(4-((trans-4-morpholinocyclohexyl)amino)-9H-pyrimido[4,5-b]indol-6-yl)pyridine-3-ol] was run?
A: Its inhibition at 0.1 µM is 12%.

Q: What about the inhibition at 1 µM [1] of the same compound?
A: The inhibition at 1 µM was 53%.

Q: And the inhibition at 0.1 µM [2]?
A: The inhibition at 0.1 µM was under 1%.

Q: What about the inhibition at 1 µM [2] of the same compound?
A: Its inhibition at 1 µM is 40%.

Q: And the inhibition at 0.1 µM [3]?
A: The inhibition at 0.1 µM was 4%.

Q: What about the inhibition at 1 µM [3] of the same compound?
A: Its inhibition at 1 µM is 29%.

Q: What about the inhibition at 0.1 µM [4] of the same compound?
A: The inhibition at 0.1 µM was 48%.

Q: And the inhibition at 1 µM [4]?
A: The inhibition at 1 µM was 92%.

Q: And the IC50 (IRAK4 enzyme)?
A: Its IC50 is 2 nM.

Q: What about the inhibition at 1 µM (IRAK4 enzyme) of the same compound?
A: The inhibition at 1 µM was 100%.

Q: With `c1ncc(-c2ccc3[nH]c4ncnc(N[C@H]5CC[C@H](N6CCOCC6)CC5)c4c3c2)cn1` [Compound 6aac, N-(trans-4-morpholinocyclohexyl)-6-(pyrimidin-5-yl)-9H-pyrimido[4,5-b]indole-4-amine] as the compound, how does the inhibition at 0.1 µM [1] read?
A: Its inhibition at 0.1 µM is 24%.

Q: And the inhibition at 1 µM [1]?
A: Its inhibition at 1 µM is 86%.

Q: What about the inhibition at 0.1 µM [2] of the same compound?
A: Its inhibition at 0.1 µM is 17%.

Q: And the inhibition at 1 µM [2]?
A: The inhibition at 1 µM was 64%.

Q: What about the inhibition at 0.1 µM [3] of the same compound?
A: Its inhibition at 0.1 µM is 7%.

Q: What about the inhibition at 1 µM [3] of the same compound?
A: The inhibition at 1 µM was 45%.

Q: What about the inhibition at 0.1 µM [4] of the same compound?
A: Its inhibition at 0.1 µM is 21%.

Q: What about the inhibition at 1 µM [4] of the same compound?
A: The inhibition at 1 µM was 84%.

Q: And the IC50 (IRAK4 enzyme)?
A: The IC50 was 12.6 nM.

Q: And the inhibition at 1 µM (IRAK4 enzyme)?
A: The inhibition at 1 µM was 100%.
